From paper PMC9877462, “Real time monitoring and evaluation of the inhibition effect of fucoxanthin against α-amylase activity by using QCM-A” (Frontiers in Nutrition, 2023) come the findings set out here.

The test deals with T1, α-amylase (from human saliva, EC 3.2.1.1) (Homo sapiens, UniProt P0DUB6).
T1 construct: gene AMY1A
T1 sequence (P0DUB6 16-511): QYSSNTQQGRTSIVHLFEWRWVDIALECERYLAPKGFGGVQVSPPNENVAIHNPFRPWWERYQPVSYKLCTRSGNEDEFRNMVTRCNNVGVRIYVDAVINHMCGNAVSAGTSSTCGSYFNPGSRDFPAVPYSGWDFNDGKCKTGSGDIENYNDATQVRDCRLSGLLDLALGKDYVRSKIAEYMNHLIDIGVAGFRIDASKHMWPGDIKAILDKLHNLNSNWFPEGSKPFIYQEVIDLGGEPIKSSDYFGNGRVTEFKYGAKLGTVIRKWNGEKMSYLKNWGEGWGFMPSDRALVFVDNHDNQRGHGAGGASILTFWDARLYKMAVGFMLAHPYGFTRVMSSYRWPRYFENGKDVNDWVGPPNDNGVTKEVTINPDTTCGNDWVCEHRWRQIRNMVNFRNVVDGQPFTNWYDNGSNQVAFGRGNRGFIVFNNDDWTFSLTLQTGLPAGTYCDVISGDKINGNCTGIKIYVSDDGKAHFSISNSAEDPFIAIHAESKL
Put plainly: Enzyme inhibition kinetics (Lineweaver-Burk and Dixon plots) with amylose substrate; amylose-immobilized QCM-A hydrolysis assay. Type of test: biochemical.

SMILES strings stand for the structures.

With `CC(=O)O[C@H]1CC(C)(C)C(=C=C/C(C)=C/C=C/C(C)=C/C=C/C=C(C)/C=C/C=C(\C)C(=O)C[C@@]23O[C@]2(C)C[C@@H](O)CC3(C)C)[C@](C)(O)C1` [fucoxanthin], the affinity corresponds to a Ki of 36.3 µM.

As a reminder, the Ki is the dissociation constant of the complex between target and ligand, obtained from inhibition or displacement. Read a high Ki as lower affinity.
